# Measured values from ChEMBL document CHEMBL1687860, “Ring B aromatic norpimarane glucoside from a Xylaria sp” (J Nat Prod, 2011).
# Columns and labels:
# [1] = system: KB; experiment: Cytotoxicity against human KB cells by resazurin microplate assay; format: functional, cell-based
# [2] = system: NCI-H187; experiment: Cytotoxicity against human NCI-H187 by resazurin microplate assay; format: functional, cell-based
# [3] = system: Vero; experiment: Cytotoxicity against african green monkey Vero cells by green fluorescent protein microplate assay; format: cell-based; conditions: Chlorocebus sabaeus
# [4] = system: MCF7; experiment: Cytotoxicity against human MCF7 cells by resazurin microplate assay; format: functional, cell-based
compound,measurement,setting,value
C=C[C@@]1(C)CCc2c3c(c(O)c(O[C@H]4O[C@H](CO)[C@@H](O)[C@H](O)[C@H]4O)c2[C@H]1O)C(C)(C)CCC3 [XYLOPIMARANE],IC50,[1],1 µM
same,IC50,[2],65 µM
same,IC50,[3],41 µM
same,IC50,[4],13 µM
